# Where a name gives a salt, the structure may show the parent alone.
# How the values were obtained:
# hippocampus sections = assay: long-term experiments on hippocampus sections (in vitro), weak tetanus early LTP in CA 1; set-up: species or system rats; conditions: rat hippocampus sections, 10 μM
# NHE [1] = biological target: T1, NHE (Homo sapiens, UniProt P48764); assay: recovery of intracellular pH in LAP1 cells expressing NHE (FLIPR, BCECF); type: cell-based; conditions: LAP1 cells stably expressing NHE, pH recovery after acidification
# T1 sequence (P48764 26-834): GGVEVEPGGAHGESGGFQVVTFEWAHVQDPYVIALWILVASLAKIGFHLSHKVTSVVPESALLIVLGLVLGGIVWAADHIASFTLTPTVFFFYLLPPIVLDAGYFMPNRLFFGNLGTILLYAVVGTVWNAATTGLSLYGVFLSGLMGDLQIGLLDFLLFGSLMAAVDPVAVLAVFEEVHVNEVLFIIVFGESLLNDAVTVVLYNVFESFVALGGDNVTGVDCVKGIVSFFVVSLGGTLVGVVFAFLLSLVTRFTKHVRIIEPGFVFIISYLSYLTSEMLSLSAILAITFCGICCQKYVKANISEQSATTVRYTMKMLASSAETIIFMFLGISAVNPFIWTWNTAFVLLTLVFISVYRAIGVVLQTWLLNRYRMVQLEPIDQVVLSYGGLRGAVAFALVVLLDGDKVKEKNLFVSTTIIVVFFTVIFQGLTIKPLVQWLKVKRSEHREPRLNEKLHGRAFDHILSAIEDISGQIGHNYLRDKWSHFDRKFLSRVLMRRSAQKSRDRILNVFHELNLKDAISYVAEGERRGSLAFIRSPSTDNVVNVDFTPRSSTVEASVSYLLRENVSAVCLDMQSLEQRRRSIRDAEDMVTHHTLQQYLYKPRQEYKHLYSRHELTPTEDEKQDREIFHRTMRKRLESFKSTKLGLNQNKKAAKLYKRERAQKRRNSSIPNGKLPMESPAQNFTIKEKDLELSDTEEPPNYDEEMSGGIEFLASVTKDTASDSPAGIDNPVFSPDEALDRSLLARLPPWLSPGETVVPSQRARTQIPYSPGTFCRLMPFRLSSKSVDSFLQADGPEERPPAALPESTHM
# Description: NHE and NHE5 Test Description:
# In this test, the recovery in the intracellular pH (pHi) of LAP1 cells, which stably express the different subtypes of the sodium-proton exchanger (NHE), after an acidification was determined. This recovery sets in even under bicarbonate-free conditions in the case of functioning NHE. To this end, the pHi was determined with the pH-sensitive fluorescent dye BCECF (Molecular Probes, Eugene, Oreg., USA; the precursor BCECF-AM is used). The cells were first incubated with BCECF (5 μM BCECF-AM) in NH4Cl buffer (NH4Cl buffer: 115 mM cholineCl, 20 mM NH4Cl, 5 mM KCl, 1 mM CaCl2, 1 mM MgCl2, 20 mM Hepes, 5 mM glucose; a pH of 7.4 is established with 1 M KOH). […] The pH recovery was started by the addition of 90 μl of Na^+-containing buffer (133.8 mM NaCl, 4.7 mM KCl, 1.25 mM CaCl2, 1.25 mM MgCl2, 0.97 mM Na2HPO4, 0.23 mM NaH2PO4, 10 mM Hepes, 5 mM glucose; a pH of 7.4 is established with 1 M NaOH) in the analytical instrument (FLIPR, “Fluorometric Imaging Plate Reader”, Molecular Devices, Sunnyvale, Calif., USA). The BCECF fluorescence was determined at an excitation wavelength of 498 nm and the FLIPR emission filter 1 (band gap from 510 to 570 nm). The subsequent changes in fluorescence were registered for NHE and NHE5 for two minutes as a measure of the pH recovery. […]
# [2] = test system: adrenergic alpha-2 receptor; conditions: cited from earlier work
# imidazoline receptor = conditions: cited from earlier work
# NHE-5 = biological target: T2, NHE-5 (Homo sapiens, UniProt Q14940); assay: inhibitory action on NHE subtypes: NHE-5; conditions: therapeutically utilizable concentration range
# T2 sequence (Q14940 1-896): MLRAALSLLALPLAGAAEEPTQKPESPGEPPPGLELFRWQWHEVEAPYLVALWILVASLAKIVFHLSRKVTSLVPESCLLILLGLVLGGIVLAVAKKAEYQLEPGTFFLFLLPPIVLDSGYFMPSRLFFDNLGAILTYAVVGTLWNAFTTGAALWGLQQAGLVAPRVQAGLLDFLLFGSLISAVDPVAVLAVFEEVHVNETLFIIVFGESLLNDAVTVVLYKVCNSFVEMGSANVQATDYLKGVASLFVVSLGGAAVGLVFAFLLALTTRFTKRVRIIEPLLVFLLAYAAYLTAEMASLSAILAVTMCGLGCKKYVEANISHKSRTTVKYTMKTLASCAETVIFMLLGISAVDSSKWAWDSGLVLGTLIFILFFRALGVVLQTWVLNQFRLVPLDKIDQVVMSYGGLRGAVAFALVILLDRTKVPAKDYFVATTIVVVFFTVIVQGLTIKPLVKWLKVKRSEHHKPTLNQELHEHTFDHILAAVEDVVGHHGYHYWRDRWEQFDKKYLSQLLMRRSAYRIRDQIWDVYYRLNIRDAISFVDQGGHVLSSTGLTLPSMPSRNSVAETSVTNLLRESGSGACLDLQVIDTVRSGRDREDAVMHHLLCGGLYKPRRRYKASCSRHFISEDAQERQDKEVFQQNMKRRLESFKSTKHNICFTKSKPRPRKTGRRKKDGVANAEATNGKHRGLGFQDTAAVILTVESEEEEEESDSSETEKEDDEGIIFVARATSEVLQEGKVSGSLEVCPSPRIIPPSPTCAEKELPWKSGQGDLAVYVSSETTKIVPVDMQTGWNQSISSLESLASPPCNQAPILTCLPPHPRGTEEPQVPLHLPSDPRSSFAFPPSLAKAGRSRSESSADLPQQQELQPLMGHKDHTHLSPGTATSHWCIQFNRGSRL
# NHE [3] = biological target: T1, NHE; assay: inhibitory action on NHE subtypes: NHE; conditions: therapeutically utilizable concentration range
# NHE-1 = NHE-1 (Homo sapiens, UniProt P19634); assay: inhibitory action on NHE subtypes: NHE-1; conditions: therapeutically utilizable concentration range
# Sequence of NHE-1 (P19634 whole entry, species assumed): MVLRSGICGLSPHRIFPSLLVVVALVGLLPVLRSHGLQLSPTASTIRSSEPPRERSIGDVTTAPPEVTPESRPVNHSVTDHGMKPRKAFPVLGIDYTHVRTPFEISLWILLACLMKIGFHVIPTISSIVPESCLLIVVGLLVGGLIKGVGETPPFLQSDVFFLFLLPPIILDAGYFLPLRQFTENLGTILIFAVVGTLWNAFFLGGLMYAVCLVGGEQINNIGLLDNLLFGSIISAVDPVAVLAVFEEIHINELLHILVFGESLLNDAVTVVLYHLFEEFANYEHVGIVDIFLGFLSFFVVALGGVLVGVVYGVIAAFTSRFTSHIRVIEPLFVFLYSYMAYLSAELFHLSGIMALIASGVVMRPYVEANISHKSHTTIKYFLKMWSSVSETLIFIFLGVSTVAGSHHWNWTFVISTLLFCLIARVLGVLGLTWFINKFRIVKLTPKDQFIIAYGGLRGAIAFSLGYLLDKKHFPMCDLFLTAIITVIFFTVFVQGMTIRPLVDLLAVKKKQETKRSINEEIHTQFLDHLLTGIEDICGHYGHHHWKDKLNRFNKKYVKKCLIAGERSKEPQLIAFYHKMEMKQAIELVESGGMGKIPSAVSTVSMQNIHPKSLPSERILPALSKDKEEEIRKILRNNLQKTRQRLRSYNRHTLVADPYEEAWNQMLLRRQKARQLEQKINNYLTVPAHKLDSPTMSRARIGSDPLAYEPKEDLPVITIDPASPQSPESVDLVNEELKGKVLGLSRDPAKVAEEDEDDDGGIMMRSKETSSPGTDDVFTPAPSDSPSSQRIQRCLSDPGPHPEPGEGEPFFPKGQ
# NHE-2 = biological target: T3, NHE-2 (Homo sapiens, UniProt Q9UBY0); assay: inhibitory action on NHE subtypes: NHE-2; conditions: therapeutically utilizable concentration range
# T3 sequence (Q9UBY0 1-812): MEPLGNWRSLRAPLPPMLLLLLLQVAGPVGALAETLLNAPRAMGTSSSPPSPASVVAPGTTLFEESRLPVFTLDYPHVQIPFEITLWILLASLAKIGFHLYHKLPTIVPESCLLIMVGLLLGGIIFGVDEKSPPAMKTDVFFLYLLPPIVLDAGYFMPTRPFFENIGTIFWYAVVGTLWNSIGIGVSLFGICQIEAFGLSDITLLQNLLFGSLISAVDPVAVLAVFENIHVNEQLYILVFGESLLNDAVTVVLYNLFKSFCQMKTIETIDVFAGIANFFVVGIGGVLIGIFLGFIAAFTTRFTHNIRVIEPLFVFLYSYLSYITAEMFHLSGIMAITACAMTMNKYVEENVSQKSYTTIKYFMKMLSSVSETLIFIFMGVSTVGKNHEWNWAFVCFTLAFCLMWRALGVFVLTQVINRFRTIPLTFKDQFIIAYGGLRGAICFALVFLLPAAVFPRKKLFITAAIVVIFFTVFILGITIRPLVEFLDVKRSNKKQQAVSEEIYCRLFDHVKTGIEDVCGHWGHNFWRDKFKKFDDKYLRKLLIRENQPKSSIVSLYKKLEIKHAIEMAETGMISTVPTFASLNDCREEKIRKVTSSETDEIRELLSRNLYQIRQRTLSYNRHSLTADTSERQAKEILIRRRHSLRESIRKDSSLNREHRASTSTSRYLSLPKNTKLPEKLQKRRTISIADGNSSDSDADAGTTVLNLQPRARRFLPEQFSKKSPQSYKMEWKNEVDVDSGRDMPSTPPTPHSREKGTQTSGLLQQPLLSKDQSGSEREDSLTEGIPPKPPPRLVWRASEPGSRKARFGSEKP
smiles,measurement,setting,value
"CN1Cc2c(Cl)cc(Cl)cc2C(c2ccc(S(=O)(=O)N=C(N)N)cc2)C1 (stereo not shown) (as salt: hydrochloride) [Example 1, N-Diaminomethylene-4-(6,8-dichloro-2-methyl-1,2,3,4-tetrahydro-isoquinolin-4-yl)benzenesulfonamide, dihydrochloride]",melting point,,140 °C (dec.)
"CN1Cc2c(Cl)cc(Cl)cc2C(c2ccc(S(=O)(=O)N=C(N)N)cc2)C1 (stereo not shown) [Example 1, N-Diaminomethylene-4-(6,8-dichloro-2-methyl-1,2,3,4-tetrahydro-isoquinolin-4-yl)benzenesulfonamide, dihydrochloride]",intrinsic effect on synaptic transmission,hippocampus sections; before tetanus,no intrinsic effect
same,potentiation of the EPSP 80 min after the stimulus,"hippocampus sections; weak tetanus, 80 min after stimulus (control 113%)",137 % of the baseline
same,IC50,NHE [1],35 nM
Clc1cccc(Cl)c1N=C1NCCN1 [Clonidine],affinity for the adrenergic alpha-2 receptor,[2],high affinity
same,affinity for the imidazoline receptor,imidazoline receptor,high affinity
Cc1csc(Cl)c1NC1=NCCN1 [tiamenidine],inhibitory action on NHE-5,NHE-5,no relevant inhibitory actions
same,inhibitory action on NHE,NHE [3],no relevant inhibitory actions
same,inhibitory action on NHE-1,NHE-1,no relevant inhibitory actions
same,inhibitory action on NHE-2,NHE-2,no relevant inhibitory actions

# — patent US8455515B2, “Substituted 4-phenyltetrahydroisoquinolines, process for their preparation, pharmaceutical compositions and therapeutic use” (Sanofi, priority 2005, dated 2013)
